Substitutions are numbered along the chain they refer to.
Experiments:
[1] = system: N. gonorrhoeae FA1090E-5 (GyrA^D90N/ParC^D86N); assay: MIC by agar dilution, GyrA^D90N/ParC^D86N strain; format: cell-based, Neisseria gonorrhoeae
Procedure: This strain was designated FA1090E-5 (GyrA^D90N/ParC^D86N).
Minimum inhibitory concentration (MIC) of test compounds was determined by an agar dilution method, the reference testing method for N. gonorrhoeae according to the standards of the Clinical and Laboratory Standards Institute and the CDC.

[2] = target: T1, N. gonorrhoeae gyrase GyrA^D90N (Neisseria gonorrhoeae, UniProt P48371, D90N); assay: DNA cleavage assay, GyrA^D90N gyrase; format: biochemical
T1 construct: His; made in house
Procedure: (§1) Some experiments replaced MgCl2 with an equivalent concentration of CaCl2 (10 mM), or 1.5 mM ATP was added to assay mixtures.
(§2) Reactions were incubated at 37 °C for 30 min with WT and mutant (GyrA^D90N, GyrA^A92T, GyrA^S91F, GyrA^D95G, or GyrA^S91F/D95G) N. gonorrhoeae gyrase, 10 min with WT N. gonorrhoeae topoisomerase IV, and 20 min with mutant (ParC^D86N, ParC^S88P, ParC^S87N, or ParC^E91G) N. gonorrhoeae topoisomerase IV. Enzyme-DNA cleavage complexes were trapped by adding 2 μL of 5% SDS followed by 2 μL of 250 mM EDTA (pH 8.0). Proteinase K was added (2 μL of a 0.8 mg/mL solution), and reaction mixtures were incubated at 45 °C for 30 min to digest the enzyme. Samples were mixed with 2 μL of loading buffer and heated at 45 °C for 2 min prior to electrophoresis in 1% agarose gels in 40 mM Tris-acetate (pH 8.3), and 2 mM EDTA containing 0.5 μg/mL ethidium bromide. DNA bands were visualized by midrange ultraviolet light and quantified using an Alpha Innotech digital imaging system (Protein Simple). Single-stranded DNA cleavage was monitored by the conversion of negatively supercoiled to nicked plasmid molecules.

[3] = target: N. gonorrhoeae topoisomerase IV ParC^E91G (Neisseria gonorrhoeae, UniProt P48374, E91G); assay: biochemical
Procedure: as §1, §2

[4] = system: N. gonorrhoeae topoisomerase IV ParC^E91G; assay: biochemical; settings: ParC E91G vs WT
Procedure: as §1, §2

[5] = target: N. gonorrhoeae topoisomerase IV ParC^S87N (Neisseria gonorrhoeae, UniProt P48374, S87N); assay: biochemical
Procedure: as §1, §2

[6] = system: N. gonorrhoeae topoisomerase IV ParC^S87N; assay: biochemical; settings: ParC S87N vs WT
Procedure: as §1, §2

[7] = target: T2, N. gonorrhoeae topoisomerase IV ParC^S88P (Neisseria gonorrhoeae, UniProt P48374, S88P); assay: biochemical
T2 sequence (P48374 1-768 S88P): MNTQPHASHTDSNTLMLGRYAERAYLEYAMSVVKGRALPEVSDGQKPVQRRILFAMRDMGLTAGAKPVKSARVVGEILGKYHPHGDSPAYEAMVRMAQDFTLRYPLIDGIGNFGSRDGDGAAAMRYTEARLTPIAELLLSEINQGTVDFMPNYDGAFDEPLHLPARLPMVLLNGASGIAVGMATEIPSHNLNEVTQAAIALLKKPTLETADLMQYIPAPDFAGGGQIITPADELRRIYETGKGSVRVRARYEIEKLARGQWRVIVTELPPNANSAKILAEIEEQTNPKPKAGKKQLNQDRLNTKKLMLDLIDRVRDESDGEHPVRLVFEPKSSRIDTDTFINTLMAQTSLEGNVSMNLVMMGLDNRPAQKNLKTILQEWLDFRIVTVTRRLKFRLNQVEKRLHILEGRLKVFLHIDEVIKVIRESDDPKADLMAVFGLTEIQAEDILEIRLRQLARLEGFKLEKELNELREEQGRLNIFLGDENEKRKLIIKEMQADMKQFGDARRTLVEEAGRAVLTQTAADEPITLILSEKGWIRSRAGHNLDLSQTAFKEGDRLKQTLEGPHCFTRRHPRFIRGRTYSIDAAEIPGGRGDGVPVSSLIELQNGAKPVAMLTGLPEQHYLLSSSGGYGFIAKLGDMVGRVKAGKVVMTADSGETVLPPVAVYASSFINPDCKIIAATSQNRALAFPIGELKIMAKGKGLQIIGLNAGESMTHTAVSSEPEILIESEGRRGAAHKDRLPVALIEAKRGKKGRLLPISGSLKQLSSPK
Procedure: as §1, §2

[8] = system: N. gonorrhoeae topoisomerase IV ParC^S88P; assay: biochemical; settings: ParC S88P vs WT topoisomerase IV
Procedure: as §1, §2

[9] = target: T3, WT N. gonorrhoeae topoisomerase IV (Neisseria gonorrhoeae, UniProt P48374); assay: biochemical
T3 sequence (P48374 1-768): T2 sequence (P48374 1-768 S88P) with P88S
Procedure: as §1, §2

O=c1ccc2ncc(=O)n3c2n1C[C@H]3CN1CCC(NCc2cc3c(cn2)OCCC3)CC1 [gepotidacin]
MIC ([1]; Neisseria gonorrhoeae): > 64 µg/mL | fold-change in MIC from WT/WT parental strain ([1]; strain FA1090E-5 vs FA1090E): > 128 fold | Adj-Max Cleavage, single-stranded DNA breaks [2]: 1.7% | increase in gepotidacin-induced DNA cleavage ([2]; GyrA D90N gyrase): essentially no increase | EC50 [3]: 200 nM | fold decrease of Adj-Max Cleavage vs WT [4]: ~3.2 fold | EC50 [5]: 600 nM | fold decrease of Adj-Max Cleavage vs WT [6]: ~4.2 fold | EC50 [7]: 200 nM | more single-stranded DNA cleavage with mutant enzyme compared to WT [8]: ~40% | EC50 [9]: 600 ± 200 nM | effect of ATP on potency and maximal DNA cleavage ([9]; WT topoisomerase IV, 1.5 mM ATP): little effect | effect on double-stranded DNA breaks ([9]; WT topoisomerase IV, Mg2+ replaced with Ca2+): clear suppression | Adj-Max Cleavage, single-stranded DNA breaks ([9]; WT topoisomerase IV, adjusted for baseline cleavage): ~42.8% | additional enhancement of double-stranded DNA breaks above baseline ([9]; WT topoisomerase IV, up to 200 μM gepotidacin, up to 180 min): not observed
